# From patent publication US10435435B2, “Quinstatin compounds” (THE ARIZONA BOARD OF REGENTS ON BEHALF OF ARIZONA STATE …, priority 2015, dated 2019)
# Where two headings read alike, the source gives them in different places. Square brackets hold non-standard residues; d marks the D form. Peptide text beside a SMILES is read from it. * marks the point of attachment. Dolaproine = CO[C@@H]([C@@H]1CCCN1)[C@@H](C)C(=O)O; Dil = CC[C@H](C)[C@H](NC)[C@@H](CC(=O)O)OC; X1 = C[C@@H](N*)[C@@H](O)c1ccccc1; NMeV = CN[C@H](C(=O)O)C(C)C
# What was measured:
# [1] = test system: DU-145 (prostate) cancer cell line; experiment: NCI sulforhodamine B growth inhibition, DU-145; assay type: cell-based, human; details: DU-145, 48 h
# Description: (§1) Next, serial dilutions of the compounds were added.
# [2] = test system: NCI-H460 (lung) cancer cell line; experiment: NCI sulforhodamine B growth inhibition, NCI-H460; assay type: cell-based, human; details: NCI-H460, 48 h
# Description: as §1
# [3] = test system: KM20L2 (colon) cancer cell line; experiment: NCI sulforhodamine B growth inhibition, KM20L2; assay type: cell-based, human; details: KM20L2, 48 h
# Description: as §1
# [4] = test system: SF-268 (CNS) cancer cell line; experiment: NCI sulforhodamine B growth inhibition, SF-268; assay type: cell-based, human; details: SF-268, 48 h
# Description: as §1
# [5] = test system: BXPC-3 (pancreas) cancer cell line; experiment: NCI sulforhodamine B growth inhibition, BXPC-3; assay type: cell-based, human; details: BXPC-3, 48 h
# Description: as §1
# [6] = test system: MCF-7 (breast) cancer cell line; experiment: NCI sulforhodamine B growth inhibition, MCF-7; assay type: cell-based, human; details: MCF-7, 48 h
# Description: as §1
# Human Cancer Cell Lines = test system: Human Cancer Cell Lines
# Description: Inhibition of human cancer cell growth was assessed using the National Cancer Institute's standard sulforhodamine B assay as previously described.^10 In summary, cells in a 5% fetal bovine serum/RPMI1640 medium were inoculated in 96-well plates and incubated for 24 hrs. Next, serial dilutions of the compounds were added. After 48 h, the plates were fixed with trichloroacetic acid, stained with sulforhodamine B, and read with an automated microplate reader.
# [7] = bracketed value, read-out: GI50
structure (smiles),measurement,setting,value
"CC[C@H](C)[C@@H]([C@@H](CC(=O)N1CCC[C@H]1[C@H](OC)[C@@H](C)C(=O)N[C@H](C)[C@@H](O)c1ccccc1)OC)N(C)C(=O)[C@@H](NC(=O)[C@H](C(C)C)N(C)C)C(C)C [Auristatin E, auristatin E, reference compound]",GI50,[1],0.31 ng/mL
same,GI50,[1]; [7],0.424 nM
same,GI50,[2],0.39 ng/mL
same,GI50,[2]; [7],0.533 nM
same,GI50,[3],0.36 ng/mL
same,GI50,[3]; [7],0.492 nM
same,GI50,[4],0.36 ng/mL
same,GI50,[4]; [7],0.492 nM
same,GI50,[5],>1 ng/mL
same,GI50,[5]; [7],> 1.37 nM
same,GI50,[6],0.17 ng/mL
same,GI50,[6]; [7],0.232 nM
"CC[C@H](C)[C@@H]([C@@H](CC(=O)N1CCC[C@H]1[C@H](OC)[C@@H](C)C(=O)N[C@H](C)[C@@H](O)c1ccccc1)OC)N(C)C(=O)[C@@H](NC(=O)[C@@H](NC)C(C)C)C(C)C [Desmethylauristatin E, desmethyl auristatin E, reference compound] (H-[NMeV]V[Dil][Dolaproine]-X1)",GI50,[1],0.3 ng/mL
same,GI50,[1]; [7],0.418 nM
same,GI50,[2],0.49 ng/mL
same,GI50,[2]; [7],0.683 nM
same,GI50,[3],0.43 ng/mL
same,GI50,[3]; [7],0.599 nM
same,GI50,[4],0.31 ng/mL
same,GI50,[4]; [7],0.432 nM
same,GI50,[5],>1 ng/mL
same,GI50,[5]; [7],> 1.39 nM
same,GI50,[6],0.29 ng/mL
same,GI50,[6]; [7],0.404 nM
"CC[C@H](C)[C@@H]([C@@H](CC(=O)N1CCC[C@H]1[C@H](OC)[C@@H](C)C(=O)N[C@@H](Cc1ccccc1)c1nccs1)OC)N(C)C(=O)[C@@H](NC(=O)[C@H](C(C)C)N(C)C)C(C)C [Dolastatin 10, dolastatin 10, reference compound]",GI50,[1],0.0052 ng/mL
same,GI50,[1]; [7],0.007 nM
same,GI50,[2],0.18 ng/mL
same,GI50,[2]; [7],0.229 nM
same,GI50,[3],0.008 ng/mL
same,GI50,[3]; [7],0.01 nM
same,GI50,[4],0.0043 ng/mL
same,GI50,[4]; [7],0.006 nM
same,GI50,[5],0.04 ng/mL
same,GI50,[5]; [7],0.051 nM
same,GI50,[6],0.0042 ng/mL
same,GI50,[6]; [7],0.005 nM
"CC[C@H](C)[C@@H]([C@@H](CC(=O)N1CCC[C@H]1[C@H](OC)[C@@H](C)C(=O)NCCc1ccc2ccccc2n1)OC)N(C)C(=O)[C@@H](NC(=O)[C@H](C(C)C)N(C)C)C(C)C [Quinstatin 2, 2-(1′-Dov-Val-Dil-Dap-2′-ethyl)-quinoline]",GI50,[1],0.31 ng/mL
same,GI50,[1]; [7],0.412 nM
same,GI50,[2],5.1 ng/mL
same,GI50,[2]; [7],6.78 nM
same,increase in cancer cell growth inhibition as compared to auristatin AQ,Human Cancer Cell Lines; comparison with auristatin AQ,ten to one hundred times
same,GI50,[3],0.33 ng/mL
same,GI50,[3]; [7],0.438 nM
same,GI50,[4],0.23 ng/mL
same,GI50,[4]; [7],0.306 nM
same,GI50,[5],9.3 ng/mL
same,GI50,[5]; [7],12.3 nM
same,GI50,[6],0.31 ng/mL
same,GI50,[6]; [7],0.412 nM
"CC[C@H](C)[C@@H]([C@@H](CC(=O)N1CCC[C@H]1[C@H](OC)[C@@H](C)C(=O)NCCc1cnc2ccccc2c1)OC)N(C)C(=O)[C@@H](NC(=O)[C@H](C(C)C)N(C)C)C(C)C [Quinstatin 3, 3-(1′-Dov-Val-Dil-Dap-2′-ethyl)-quinoline]",GI50,[1],0.2 ng/mL
same,GI50,[1]; [7],0.26 nM
same,GI50,[2],31 ng/mL
same,GI50,[2]; [7],41.2 nM
same,GI50,[3],0.4 ng/mL
same,GI50,[3]; [7],0.53 nM
same,GI50,[4],0.29 ng/mL
same,GI50,[4]; [7],0.38 nM
same,GI50,[5],21 ng/mL
same,GI50,[5]; [7],27.9 nM
same,GI50,[6],0.23 ng/mL
same,GI50,[6]; [7],0.31 nM
"CC[C@H](C)[C@@H]([C@@H](CC(=O)N1CCC[C@H]1[C@H](OC)[C@@H](C)C(=O)NCCc1ccc2ncccc2c1)OC)N(C)C(=O)[C@@H](NC(=O)[C@H](C(C)C)N(C)C)C(C)C [Quinstatin 6, Dov-Val-Dil-Dap-2-(quinolin-6-yl)ethylamine]",GI50,[1],0.3 ng/mL
same,GI50,[1]; [7],0.399 nM
same,GI50,[2],4.3 ng/mL
same,GI50,[2]; [7],5.71 nM
same,GI50,[3],0.39 ng/mL
same,GI50,[3]; [7],0.518 nM
same,GI50,[4],0.3 ng/mL
same,GI50,[4]; [7],0.399 nM
same,GI50,[5],2 ng/mL
same,GI50,[5]; [7],2.66 nM
same,GI50,[6],0.4 ng/mL
same,GI50,[6]; [7],0.532 nM
"CC[C@H](C)[C@@H]([C@@H](CC(=O)N1CCC[C@H]1[C@H](OC)[C@@H](C)C(=O)NCCc1ccc2cccnc2c1)OC)N(C)C(=O)[C@@H](NC(=O)[C@H](C(C)C)N(C)C)C(C)C [Quinstatin 7, 7-(1′-Dov-Val-Dil-Dap-2′-ethyl)-quinoline]",GI50,[1],0.03 ng/mL
same,GI50,[1]; [7],0.04 nM
same,GI50,[2],11 ng/mL
same,GI50,[2]; [7],14.6 nM
same,GI50,[3],0.041 ng/mL
same,GI50,[3]; [7],0.054 nM
same,GI50,[4],0.024 ng/mL
same,GI50,[4]; [7],0.032 nM
same,GI50,[5],3.1 ng/mL
same,GI50,[5]; [7],4.12 nM
same,GI50,[6],0.03 ng/mL
same,GI50,[6]; [7],0.039 nM
"CC[C@H](C)[C@@H]([C@@H](CC(=O)N1CCC[C@H]1[C@H](OC)[C@@H](C)C(=O)NCCc1cccc2cccnc12)OC)N(C)C(=O)[C@@H](NC(=O)[C@H](C(C)C)N(C)C)C(C)C [Quinstatin 8, 8-(1′-Dov-Val-Dil-Dap-2′-ethyl)-quinoline]",GI50,[1],0.04 ng/mL
same,GI50,[1]; [7],0.053 nM
same,GI50,[2],0.9 ng/mL
same,GI50,[2]; [7],1.19 nM
same,inhibition level compared with dolastatin 10,Human Cancer Cell Lines; in one of the experiments,"at the dolastatin 10 level, but not consistently"
same,GI50,[3],0.04 ng/mL
same,GI50,[3]; [7],0.053 nM
same,GI50,[4],0.023 ng/mL
same,GI50,[4]; [7],0.03 nM
same,GI50,[5],0.5 ng/mL
same,GI50,[5]; [7],0.425 nM
same,GI50,[6],0.04 ng/mL
same,GI50,[6]; [7],0.053 nM
